Consider six molecules from patent US4908365A, “Benzhydryloxyethylpiperazine derivatives, processes for their preparation and pharmaceutical compositions in which they are present” (priority 1986, dated 1990).

Series [1] has as its system peritoneal pain caused by phenylbenzoquinone (PBQ). Description: Peripheral analgesic activity (phenylbenzoquinone peritoneal pain). Format: in vivo, mice. The conditions noted are these: Mus musculus, 0.5 h, read-out: Peripheral analgesic activity ED50. From the text: E-Peripheral analgesic activity
A peritoneal pain is caused in mice by the intraperitoneal injection of phenylbenzoquinone (PBQ). The test tries to measure the decrease in the pain syndrome, characterized by an abdominal twisting movement, which is caused by injecting the test product thirty minutes before the administration of PBQ.

The subject of series [2] is histamine. As to the kind of experiment: Bronchospasm by inhalation of a histamine solution. Format: in vivo, guinea-pigs. The conditions noted are these: for ED50: Cavia porcellus, 0.5 h, read-out: Bronchospasm ED50. Here is the method: F-Bronchospasm by inhalation of a histamine solution
Guinea-pigs are placed in a closed chamber into which histamine is introduced as an aerosol, and only those which show very distinct signs of asphyxia within four minutes are selected.
The substance to be studied is administered to groups of guinea-pigs thirty minutes before a further period in the chamber in order to check the resistance to histamine. A guinea-pig is considered to be protected if it resists the histamine aerosol for ten minutes without showing signs of asphyxia.
A 50% effective dose is calculated from the results obtained.

The subject of series [3] is histamine. Description: animal or person. The conditions noted are these: Cavia porcellus, 0.5 h, read-out: Histaminic shock ED50. The series is classed as in vivo, guinea-pigs.
Series [4] can be described thus: in vivo. The conditions noted are these: mouse, ip.
The subject of series [5] is sleep induced by pentobarbital. As to the kind of experiment: animal or person. Format: in vivo, mice. The conditions noted are these: ip.
The test system of series [6] is mice. As to the kind of experiment: Study of the spontaneous motility (motor activity), photoelectric actimeter. Conditions: mouse, at 25 mg.kg^-1 i.p. Format: in vivo.
Series [7] concerns mice. Description: Exploration behavior (hole-board). The series is classed as in vivo. The conditions noted are these: Mus musculus, ip, 0.5 h, read-out: Exploration behavior ED50. From the text:
Thirty minutes after the intraperitoneal administration of the derivatives according to the invention, each mouse is placed on an automated hole-board for five minutes and the number of holes explored is noted every minute.
(§1) A 50% effective dose can be calculated from the results obtained.

The test system of series [8] is mice. Description: Muscle-relaxing action (traction test). The series is classed as in vivo. Conditions: Mus musculus, ip, read-out: Muscle-relaxing action - Traction test ED50.
From the text: C-Muscle-relaxing action (traction test)
This test assesses the presence or absence of redressments in a mouse brought up to a horizontal wire with its front paws.
The number of mice which are unable to grip the wire with one of their back paws within five seconds are noted.
as §1

Read-outs that look alike come from different tables or passages of the source.

Turning to `CS(=O)(=O)O.CS(=O)(=O)O.O=C1c2ccccc2C(=O)N1CCN1CCN(CCOC(c2ccccc2)c2ccccc2)CC1` [Derivative 2, 1-[2-(Benzhydryloxy)ethyl]-4-[2-(phthalimido)-ethyl]piperazine dimethanesulfonate], the ED50 was determined as 3.12 mg/kg in series [1] (ip), 3.67 mg/kg in series [2] (ip) and 2.03 mg/kg in series [3] (ip). The molecule also yielded an LD50 in series [4] of 211 mg/kg.
As for `O=C1c2ccccc2C(=O)N1CCCCN1CCN(CCOC(c2ccccc2)c2ccccc2)CC1` [Derivative 19], the ED50 was determined as 1.56 mg/kg in series [1] (ip), 5.34 mg/kg in series [2] (po) and 2.2 mg/kg in series [3] (po). The 50% lethal dose (LD50) in series [4] stood at 133 mg/kg.
Consider `O=C1CCC(=O)N1CCN1CCN(CCOC(c2ccccc2)c2ccccc2)CC1` [Derivative 22], for which the ED50 was found to be 35 mg/kg in series [1] (po), 3.96 mg/kg in series [2] (ip) and 3.25 mg/kg in series [3] (ip). Besides, the LD50 in series [4] was 146 mg/kg.
As for `O=c1n(CCN2CCN(CCOC(c3ccccc3)c3ccccc3)CC2)c2ccccc2n1Cc1ccccc1` [Derivative 32], in series [2] (guinea pig, in vivo, po), the Bronchospasm was found to be 33%. Besides, in series [3] (po), the ED50 was determined as 2.3 mg/kg. The median lethal dose (LD50) in series [4] amounted to 400 mg/kg.
As to `O=C(NCCN1CCN(CCOC(c2ccccc2)c2ccccc2)CC1)c1ccccc1[N+](=O)[O-]` [Derivative 49], in series [5] (mouse, in vivo), the Interaction with pentobarbital entry was “no interaction”. Moreover, the ED50 is 2.6 mg/kg in series [1] (sc) and 3.12 mg/kg in series [2] (po). In series [4], this molecule returned a median lethal dose (LD50) of 131 mg/kg.
Take `CC(C)(C)c1ccc(C(O)CCCN2CCC(C(O)(c3ccccc3)c3ccccc3)CC2)cc1` (stereo not shown) [Terfenadine, reference compound]: in series [6], the Motor activity result was “Significant decrease”. The ED50 was 37 mg/kg in series [7]; 31 mg/kg in series [8]; 25 mg/kg in series [5] (Mus musculus, read-out: Interaction with pentobarbital ED50); 3.1 mg/kg in series [1] (ip). In series [4], the LD50 worked out at 100 mg/kg.
